Experimental data taken from patent publication US20050014137A1, “Lentivirus assay system including Vif protein activity” (priority 2003, published 2005).
Where two headings read alike, the source gives them in different places.

Assays:
HIV-1 = settings: range of EC50 values reported in the literature, NIH anti-HIV therapeutics database, cited from earlier work
HIV-1 NL4.3 [1] = experiment: PM1 cell-based HIV co-culture assay (HeLa CD4 LTR/lacZ indicator cells, β-Gal reporter); settings: for EC50: read-out: PM-1 Co-Culture Assay EC50; for EC90: read-out: PM-1 Co-Culture Assay EC90
Source text: (§1) The modifications were as follows: PM1 cells were used in place of the MT-2 cells.
as §1

HIV-1 NL4.3 [2] = experiment: MT-2 cell-based HIV co-culture assay (HeLa CD4 LTR/lacZ indicator cells, β-Gal reporter); settings: for EC50: read-out: MT-2 Co-Culture Assay EC50; for EC90: read-out: MT-2 Co-Culture Assay EC90
Experimental: HeLa CD4 LTR/lacZ indicator cells were added to 96-well microtiter plates at cell densities of 1×10^4 cells/well in DMEM or RPMI medium (Life Technologies) containing 10% FBS (HyClone). MT-2 cells were infected with HIV-1 NL4.3 using 656, 1312, 2624, or 5248 TCID50s per 1.6×10^4 cells. Two hours after infection, infected MT-2 cells were washed with RPMI medium (Life Technologies) and added to the 96-well microtiter plates containing the HeLa CD4 LTR/lacZ indicator cells. The final MT2-cell densities in the indicator wells were 1.6×10^4 cells/well.
Virus replication was measured 4 days after infection by quantifying HIV-1 Tat induced beta-galactosidase (β-Gal) activity in the HeLa CD4 LTR/lacZ indicator cells using the Dual-Light™ System according to the manufacturer's protocol (Applied Biosystems). Experiments were performed in replicates of 3 or more.
Half-log dilutions of test compounds were added to HeLa CD4 LTR/lacZ indicator cells seeded in 96-well plates at a cell density of 1×10^4 cells per well in DMEM or RPMI (Life Technologies) containing 10% FBS (HyClone). MT-2 cells were infected with HIV-1 NL4.3 virus at an MOI of 0.08. Two hours after infection, infected cells were washed with RPMI, resuspended in RPMI medium, and added to the 96-well plates containing compound-treated or compound free HeLa CD4 LTR/lacZ indicator cells. Virus replication was measured 3 or 4 days after infection by quantifying HIV-1 Tat induced β-Gal activity in the HeLa CD4 LTR/lacZ indicator cells using the Dual-Light™ System according to the manufacturer's protocol (Applied Biosystems).
Data was expressed as the percent of reporter gene activity in infected compound-treated cells relative to that of infected, compound-free cells.

HIV-1 NL4.3 [3] = experiment: Direct infection of HeLa CD4 LTR/lacZ indicator cells (known reporter cell assay); assay type: cell-based
Source text: This Example compared the present HIV co-culture assay with a known reporter cell-based assay method. This known method involved direct infection of HeLa CD4 LTR/lacZ indicator cells with HIV-1 (Kimpton and Emerman, J. Virol., 66(4):2232-2239 (1992)).
HeLa CD4 LTR/lacZ indicator cells were directly infected with TCID50s identical to those used in the co-culture experiments described in Examples 1 and 2. HeLa CD4 LTR/lacZ indicator cells were infected directly with HIV-1 NL4.3 using 656, 1312, 2624, or 5248 TCID50s per 1×10^4 cells.

[4] = read-out: Literature EC50 (Table 1)
[5] = read-out: Literature EC50 (Table 2)
[6] = Human immunodeficiency virus 1, PM1, 96 h, induced β-Gal activity 4 days after HIV-1 NL4.3 infection, PM-1 cells
[7] = Human immunodeficiency virus 1, MT2, 96 h, induced β-Gal activity 4 days after HIV-1 NL4.3 infection, MT-2 cells, MOI 0.08
[8] = Human immunodeficiency virus 1, PM1, 96 h
[9] = Human immunodeficiency virus 1, MT2, 96 h
[10] = induced β-Gal activity 4 days after HIV-1 NL4.3 infection, PM-1 cells
[11] = induced β-Gal activity 4 days after HIV-1 NL4.3 infection, MT-2 cells, MOI 0.08
[12] = Human immunodeficiency virus 1, 96 h, read-out: inhibition of the reporter signal

Row | Structure (SMILES) | EC50 (HIV-1; [4]) [nM] | EC50 (HIV-1; [5]) [nM] | EC50 (HIV-1 NL4.3 [1]; [8]) [nM] | EC90 (HIV-1 NL4.3 [1]; [8]) [nM] | EC50 (HIV-1 NL4.3 [2]; [9]) [nM] | EC90 (HIV-1 NL4.3 [2]; [9]) [nM] | other results
1 | CC(C)(C)C(=O)OCOP(=O)(COCCn1cnc2c(N)ncnc21)OCOC(=O)C(C)(C)C [ADV, adefovir dipivoxil] | 40 to 500 | 40 to 500 | – | – | – | – | EC50 (HIV-1 NL4.3 [1]; [6]): 25 nM; EC90 (HIV-1 NL4.3 [1]; [6]): 150 nM; EC50 (HIV-1 NL4.3 [2]; [7]): 39 nM; EC90 (HIV-1 NL4.3 [2]; [7]): 220 nM
2 | CC(C)(C)NC(=O)[C@@H]1C[C@@H]2CCCC[C@@H]2CN1C[C@@H](O)[C@H](Cc1ccccc1)NC(=O)[C@H](CC(N)=O)NC(=O)c1ccc2ccccc2n1 [SQV, saquinavir] | 0.2 to 57 | 0.2 to 57 | 5.3 | 34 | 12 | 26 | –
3 | CC(C)Nc1cccnc1N1CCN(C(=O)c2cc3cc(NS(C)(=O)=O)ccc3[nH]2)CC1 [DLV, delavirdine] | 0.1 to 10 | 0.1 to 10 | 5.9 | 100 | 34 | 110 | –
4 | O=c1[nH]cnc2c1ncn2[C@H]1CC[C@@H](CO)O1 [ddl, didanosine] | 460 to 10000 | – | – | – | 1700 | 14000 | –
5 | CC(C)c1nc(COC(N)=O)n(Cc2ccncc2)c1Sc1cc(Cl)cc(Cl)c1 [CPV, Capravirine] | – | – | – | – | 2.4 | 12 | –
6 | Cc1cn([C@H]2C[C@H](N=[N+]=[N-])[C@@H](CO)O2)c(=O)[nH]c1=O [AZT, 3′-Azido-3′-deoxythymidine] | 6 to 90 | 6 to 90 | 30 | 180 | 31 | 280 | –
7 | CC(C)(C)NC(=O)[C@@H]1CN(Cc2cccnc2)CCN1C[C@@H](O)C[C@@H](Cc1ccccc1)C(=O)N[C@H]1c2ccccc2C[C@H]1O [IDV, indinavir] | 1.1 to 60 | 1.1 to 60 | 12 | 47 | 26 | 55 | –
8 | O=C(/C=C(\O)c1nc[nH]n1)c1ccc(Cc2ccc(F)cc2)o1 [S-1360] | – | – | – | – | – | – | EC50 (HIV-1 NL4.3 [1]; [6]): 91 nM; EC90 (HIV-1 NL4.3 [1]; [6]): 280 nM; EC50 (HIV-1 NL4.3 [2]; [7]): 88 nM; EC90 (HIV-1 NL4.3 [2]; [7]): 1090 nM
9 | O=C(NCc1ccc(F)cc1)c1nc(N2CCCCS2(=O)=O)c2cccnc2c1O [L-870810] | 4 to 8 | 4 to 8 | – | – | – | – | EC50 (HIV-1 NL4.3 [1]; [10]): 0.61 nM; EC90 (HIV-1 NL4.3 [1]; [10]): 2.4 nM; EC50 (HIV-1 NL4.3 [2]; [11]): 1.4 nM; EC90 (HIV-1 NL4.3 [2]; [11]): 5.9 nM
10 | Cc1cn([C@H]2C=C[C@@H](CO)O2)c(=O)[nH]c1=O [d4T, stavudine] | 10 to 8000 | – | – | – | 210 | 3600 | –
11 | Cc1ccnc2c1NC(=O)c1cccnc1N2C1CC1 [NVP, Nevirapine] | 24 to 48 | 24 to 48 | – | 260 | – | – | EC50 (HIV-1 NL4.3 [1]; [6]): 12 nM; EC50 (HIV-1 NL4.3 [2]; [7]): 46 nM; EC90 (HIV-1 NL4.3 [2]; [7]): 380 nM
12 | Cc1c(O)cccc1C(=O)N[C@@H](CSc1ccccc1)[C@H](O)CN1C[C@H]2CCCC[C@H]2C[C@H]1C(=O)NC(C)(C)C [NFV, nelfinavir] | 10 to 43 | 10 to 43 | 10 | 58 | 18 | 100 | inhibition of the reporter signal (HIV-1 NL4.3 [3]; inhibitor at 10×EC90): 42%; inhibition of the reporter signal (HIV-1 NL4.3 [1]; PM1 co-culture, inhibitor at ≧10×EC90): 99%; inhibition at 1 µM (HIV-1 NL4.3 [2]; [12]): ~98%
13 | Nc1ccn([C@@H]2CS[C@H](CO)O2)c(=O)n1 [3TC, lamivudine] | – | – | 180 | 1700 | 420 | 5500 | –
14 | O=C1Nc2ccc(Cl)cc2[C@@](C#CC2CC2)(C(F)(F)F)O1 [EFV, efavirenz] | – | – | 0.19 | 6.2 | 1.4 | 4.3 | inhibition of the reporter signal (HIV-1 NL4.3 [3]; inhibitor at >10×EC90): > 99%; inhibition at 0.1 µM (HIV-1 NL4.3 [2]; [12]): > 99%
15 | O=C(O)C1=CC(=C(c2ccc(O)c(C(=O)O)c2)c2ccc(O)c(C(=O)O)c2)C=CC1=O [ATA, aurintricarboxylic acid] | – | – | – | – | 3300 | 9900 | –
